Here are results for 26 compounds from ChEMBL document CHEMBL1152546, “N-[2-chloro-9H-purin-6-yl]-N-cyclopropylglycylamino acids and derivatives: synthesis, evaluation as a class of novel analgesics, and 3D QSAR analysis” (2009).

Common to all, as to assay type: functional
Test [1] has as its system Mus musculus. The experiment in a line: Analgesic activity in ICR mouse assessed as pain threshold variation at 25 umol/kg, po administered as single dose measured after 30 mins by tail flick test relative to control.
Test [2] concerns Mus musculus. In words: Analgesic activity in ICR mouse assessed as pain threshold variation at 25 umol/kg, po administered as single dose measured after 60 mins by tail flick test relative to control.
Test [3] deals with Mus musculus. In words: Analgesic activity in ICR mouse assessed as pain threshold variation at 25 umol/kg, po administered as single dose measured after 90 mins by tail flick test relative to control. Background: Hot-plate and tail-flick tests time the reaction to a heat stimulus.
Test [4] concerns Mus musculus. In words: Analgesic activity in ICR mouse assessed as pain threshold variation at 25 umol/kg, po administered as single dose measured after 120 mins by tail flick test relative to control.
Test [5] has as its system Mus musculus. The experiment in a line: Analgesic activity in ICR mouse assessed as pain threshold variation at 25 umol/kg, po administered as single dose measured after 150 mins by tail flick test relative to control.
Test [6] concerns Mus musculus. In words: Analgesic activity in ICR mouse assessed as pain threshold variation at 25 umol/kg, po administered as single dose measured after 180 mins by tail flick test relative to control.

Molecules are shown by their SMILES.

As to `O=C(CN(c1nc(Cl)nc2[nH]cnc12)C1CC1)N[C@@H](CC(=O)OCc1ccccc1)C(=O)OCc1ccccc1`, the Activity turned out to be 34.7% in test [1]; 22.4% in test [2]; 15.58% in test [3]; 12.14% in test [4]; 6.68% in test [5]; 2.87% in test [6].

For `O=C(CN(c1ncnc2c1ncn2C1CCCCO1)C1CC1)N[C@@H](CO)C(=O)OCc1ccccc1` (stereo partly specified), the Activity in test [1] is given as 27.77%; in test [2], 46.71%; in test [3] it was 32.17%; in test [4] it was 29.2%; in test [5], 18.32%; in test [6], 12.85%.

With `NC(=O)C[C@H](NC(=O)CN(c1nc(Cl)nc2[nH]cnc12)C1CC1)C(=O)OCc1ccccc1`, the Activity turned out to be 24.41% in test [1]; 36.36% in test [2]; 32.27% in test [3]; 15.13% in test [4]; 13.49% in test [5]; 5.3% in test [6].

On to `CC[C@H](C)[C@H](NC(=O)CN(c1nc(Cl)nc2[nH]cnc12)C1CC1)C(=O)O`, for which the Activity in test [1] is on record as 30.34%; in test [2], 35.97%; in test [3] it was 27.39%; in test [4], 21.42%; in test [5], 6.71%; in test [6] it was 3.9%.

Take `O=C(CN(c1nc(Cl)nc2[nH]cnc12)C1CC1)N[C@@H](Cc1c[nH]c2ccccc12)C(=O)O`: the Activity in test [1] was determined as 17.55%; in test [2] it was 17.84%; in test [3] it was 18.3%; in test [4], 8.19%; in test [5], 5.27%; in test [6], 3.91%.

`C[C@@H](O)[C@H](NC(=O)CN(c1ncnc2c1ncn2C1CCCCO1)C1CC1)C(=O)OCc1ccccc1` (stereo partly specified): the Activity in test [1] is recorded as 23.61%; in test [2], 28.36%; in test [3], 23.38%; in test [4] it was 10.91%; in test [5], 6.53%; in test [6], 2.34%.

As for `O=C(OCc1ccccc1)[C@@H]1CCCN1C(=O)CN(c1nc(Cl)nc2[nH]cnc12)C1CC1`, the Activity in test [1] was 33.18%; in test [2], 34.37%; in test [3], 43.28%; in test [4], 38.35%; in test [5], 31.09%; in test [6] it was 17.63%.

As to `NC(=O)C[C@H](NC(=O)CN(c1ncnc2c1ncn2C1CCCCO1)C1CC1)C(=O)OCc1ccccc1` (stereo partly specified), the Activity in test [1] came to 34.53%; in test [2], 30.54%; in test [3] it was 34.95%; in test [4], 29.15%; in test [5] it was 21.71%; in test [6], 15.45%.

With `O=C(CN(c1ncnc2c1ncn2C1CCCCO1)C1CC1)N[C@@H](Cc1cnc[nH]1)C(=O)OCc1ccccc1` (stereo partly specified), the Activity is recorded as 24.98% in test [1]; 36.43% in test [2]; 14.45% in test [3]; 10.16% in test [4]; 5.31% in test [5]; 4.38% in test [6].

On to `O=C(CN(c1ncnc2c1ncn2C1CCCCO1)C1CC1)N[C@@H](CCC(=O)OCc1ccccc1)C(=O)OCc1ccccc1` (stereo partly specified), for which the Activity in test [1] is given as 32.61%; in test [2], 34.74%; in test [3] it was 25.2%; in test [4], 20.71%; in test [5], 14.14%; in test [6], 10.93%.

For `CSCC[C@H](NC(=O)CN(c1nc(Cl)nc2[nH]cnc12)C1CC1)C(=O)OCc1ccccc1`, the Activity worked out at 22.22% in test [1]; 30.76% in test [2]; 44.55% in test [3]; 31.55% in test [4]; 17.64% in test [5]; 10.66% in test [6].

Consider `NC(=O)CC[C@H](NC(=O)CN(c1nc(Cl)nc2[nH]cnc12)C1CC1)C(=O)OCc1ccccc1`, for which the Activity in test [1] is 30.76%; in test [2], 33.07%; in test [3], 42.83%; in test [4] it was 36.04%; in test [5], 31.07%; in test [6] it was 19.17%.

On to `O=C(CN(c1nc(Cl)nc2[nH]cnc12)C1CC1)N[C@@H](Cc1cnc[nH]1)C(=O)OCc1ccccc1`, for which the Activity was 29.06% in test [1]; 26.6% in test [2]; 15.04% in test [3]; 10.15% in test [4]; 5.05% in test [5]; 4.18% in test [6].

Consider `O=C(CN(c1nc(Cl)nc2[nH]cnc12)C1CC1)N[C@@H](CO)C(=O)OCc1ccccc1`, for which the Activity in test [1] was 31.88%; in test [2], 34.17%; in test [3] it was 34.53%; in test [4], 34.5%; in test [5], 27.88%; in test [6] it was 11.5%.

`O=C(CN(c1ncnc2c1ncn2C1CCCCO1)C1CC1)N[C@@H](Cc1ccccc1)C(=O)OCc1ccccc1` (stereo partly specified): the Activity in test [1] was 39.2%; in test [2], 45.54%; in test [3], 37.73%; in test [4] it was 26.29%; in test [5], 3.49%; in test [6], 1.79%.

For the compound `CC[C@H](C)[C@H](NC(=O)CN(c1ncnc2c1ncn2C1CCCCO1)C1CC1)C(=O)OCc1ccccc1` (stereo partly specified), the Activity in test [1] turned out to be 25.56%; in test [2] it was 27.35%; in test [3] it was 22.57%; in test [4], 20.42%; in test [5], 16.43%; in test [6] it was 9.15%.

Turning to `CC(C)C[C@H](NC(=O)CN(c1ncnc2c1ncn2C1CCCCO1)C1CC1)C(=O)OCc1ccccc1` (stereo partly specified), the Activity in test [1] worked out at 26.2%; in test [2] it was 34.19%; in test [3], 28.22%; in test [4], 12.79%; in test [5], 6.47%; in test [6], 0.04%.

For `NC(=O)C[C@H](NC(=O)CN(c1nc(Cl)nc2[nH]cnc12)C1CC1)C(=O)O`, the Activity in test [1] is 29.73%; in test [2], 43.14%; in test [3], 20.06%; in test [4] it was 17.03%; in test [5], 7.51%; in test [6], 5.66%.

Consider `CSCC[C@H](NC(=O)CN(c1nc(Cl)nc2[nH]cnc12)C1CC1)C(=O)O`, for which the Activity in test [1] came to 20.37%; in test [2], 22.75%; in test [3], 13.99%; in test [4] it was 5.67%; in test [5] it was 4.14%; in test [6] it was 3.4%.

For `CSCC[C@H](NC(=O)CN(c1ncnc2c1ncn2C1CCCCO1)C1CC1)C(=O)OCc1ccccc1` (stereo partly specified), the Activity in test [1] worked out at 30.04%; in test [2], 40.97%; in test [3], 42.7%; in test [4] it was 28.66%; in test [5] it was 17.47%; in test [6], 12.89%.

In the case of `N=C(N)NCCC[C@H](NC(=O)CN(c1ncnc2c1ncn2C1CCCCO1)C1CC1)C(=O)OCc1ccccc1` (stereo partly specified), the Activity in test [1] was determined as 34.27%; in test [2], 52.35%; in test [3], 61.58%; in test [4], 38.16%; in test [5], 19.6%; in test [6], 7.97%.

For the compound `CC(C)[C@H](NC(=O)CN(c1ncnc2c1ncn2C1CCCCO1)C1CC1)C(=O)OCc1ccccc1` (stereo partly specified), the Activity in test [1] is 21.83%; in test [2] it was 34.85%; in test [3], 30.14%; in test [4], 25.79%; in test [5] it was 21.08%; in test [6] it was 5.65%.

Take `NC(=O)CC[C@H](NC(=O)CN(c1ncnc2c1ncn2C1CCCCO1)C1CC1)C(=O)OCc1ccccc1` (stereo partly specified): the Activity amounted to 46.96% in test [1]; 39.4% in test [2]; 37.82% in test [3]; 22.34% in test [4]; 10.72% in test [5]; 7.71% in test [6].

As to `N=C(N)NCCC[C@H](NC(=O)CN(c1nc(Cl)nc2[nH]cnc12)C1CC1)C(=O)OCc1ccccc1`, the Activity in test [1] amounted to 23.19%; in test [2], 30.57%; in test [3] it was 30.44%; in test [4], 10.24%; in test [5], 6.12%; in test [6], 1.78%.

In the case of `C[C@H](NC(=O)CN(c1ncnc2c1ncn2C1CCCCO1)C1CC1)C(=O)OCc1ccccc1` (stereo partly specified), the Activity in test [1] is recorded as 55.91%; in test [2] it was 53%; in test [3], 32.06%; in test [4], 25.3%; in test [5] it was 6.01%; in test [6], 5.96%.

In the case of `CC(C)[C@H](NC(=O)CN(c1nc(Cl)nc2[nH]cnc12)C1CC1)C(=O)O`, the Activity stood at 31.15% in test [1]; 38.79% in test [2]; 30.28% in test [3]; 17.06% in test [4]; 7.86% in test [5]; 3.04% in test [6].
